Test results reported in ChEMBL document CHEMBL1153896, “Antiproliferative cardenolide glycosides of Elaeodendron alluaudianum from the Madagascar Rainforest” (Bioorg Med Chem, 2009).

Tests used:
Type in all cases: functional, cell-based
U-937 = assay: Antiproliferative activity against human U937 cells after 96 hrs by celltiter-glo luminescent cell viability assay; details: U-937, 96 h
A2780 = assay: Antiproliferative activity against human A2780 cells after 96 hrs by celltiter-glo luminescent cell viability assay; details: A2780, 96 h
KB = assay: Antiproliferative activity against human KB cells
[1] = Antiproliferative activity against HSG cells; details: Homo sapiens

Compound	IC50 (U-937) [nM]	IC50 (A2780) [nM]	IC50 (KB) [nM]	IC50 [1] [nM]
C[C@H]1O[C@@H](O[C@H]2CC[C@]3(C=O)[C@H]4[C@H](O)C[C@]5(C)[C@@H](C6=CC(=O)OC6)CC[C@]5(O)[C@@H]4CC[C@]3(O)C2)[C@H](O)[C@H](O)[C@@H]1O[C@@H]1O[C@H](CO)[C@@H](O)[C@@H](O)[C@H]1O [ELAEODENDROSIDE W]	80	70	–	–
C[C@H]1O[C@@H](O[C@H]2CC[C@]3(C=O)[C@H]4[C@H](O)C[C@]5(C)[C@@H](C6=CC(=O)OC6)CC[C@]5(O)[C@@H]4CC[C@]3(O)C2)[C@H](O)[C@H](O)[C@H]1O	–	–	74	–
C[C@H]1O[C@@H](O[C@H]2[C@H](O)[C@H](O)[C@H](O[C@H]3CC[C@]4(C=O)[C@H]5[C@H](O)C[C@]6(C)[C@@H](C7=CC(=O)OC7)CC[C@]6(O)[C@@H]5CC[C@]4(O)C3)O[C@@H]2C)[C@@H](O)[C@@H](O)[C@@H]1O	–	–	–	49
C[C@H]1O[C@@H](O[C@H]2CC[C@]3(CO)[C@H]4[C@H](O)C[C@]5(C)[C@@H](C6=CC(=O)OC6)CC[C@]5(O)[C@@H]4CC[C@]3(O)C2)[C@H](O)[C@H](O)[C@@H]1O[C@@H]1O[C@H](CO)[C@@H](O)[C@@H](O)[C@H]1O [ELAEODENDROSIDE V]	150	120	–	–
